In ChEMBL document CHEMBL5120838, “Synthesis and biological evaluation of geniposide derivatives as inhibitors of hyperuricemia, inflammatory and fibrosis” (Eur J Med Chem, 2022):
Activity calls are given as the source filed them. No cut-off for these calls is given here.

Tests used:
HK-2 [1] = assay: Inhibition of epithelial-mesenchymal transition in human HK-2 cells assessed as downregulation of uric acid-induced collagen-1 protein expression by Western blot analysis; assay type: functional, cell-based; details: dose 12.5-100 µM, DDE = dose-dependent effect
Mus musculus [2] = assay: Anti-hyperuricemic activity against adenine and potassium oxonate-induced hyperuricemia Kunming mouse model assessed as reduction in serum uric acid level at 5 mg/kg, po administered via gavage once daily for 4 weeks (reference value: 356.15 +/- 3.31 uM); assay type: functional
[3] = target: T1, Xanthine dehydrogenase/oxidase (Bos taurus, UniProt P80457); assay: Inhibition of bovine XOD assessed as inhibition of uric acid formation using xanthine as substrate preincubated with enzyme for 5 mins followed by substrate addition and measured for 30 mins by microplate reader analysis
Mus musculus [4] = assay: Anti-hyperuricemic activity against adenine and potassium oxonate-induced hyperuricemia Kunming mouse model assessed as reduction in serum uric acid level at 20 mg/kg, po administered via gavage once daily for 2 weeks (reference value: 318.16 +/- 3.31 uM); assay type: functional
Mus musculus [5] = assay: Anti-hyperuricemic activity against adenine and potassium oxonate-induced hyperuricemia Kunming mouse model assessed as reduction in serum creatinine level at 20 mg/kg, po administered via gavage once daily for 2 weeks (reference value: 87.62 +/- 0.67 uM); assay type: functional
Mus musculus [6] = assay: Anti-hyperuricemic activity against adenine and potassium oxonate-induced hyperuricemia Kunming mouse model assessed as blood urea nitrogen level at 20 mg/kg, po administered via gavage once daily for 2 weeks (reference value: 9.88 +/- 1.21 mM); assay type: functional
Mus musculus [7] = assay: Nephroprotective activity against adenine and potassium oxonate-induced hyperuricemia Kunming mouse model assessed as reduction in connective tissue hyperplasia at 20 mg/kg, po administered via gavage and measured after 21 days by hematoxylin-eosin and Masson trichrome staining based optical microscopic analysis; assay type: functional, organism-based; details: time 21.0 day
Mus musculus [8] = assay: Nephroprotective activity against adenine and potassium oxonate-induced hyperuricemia Kunming mouse model assessed as reduction in neutrophils infiltrations at 20 mg/kg, po administered via gavage and measured after 21 days by hematoxylin-eosin and Masson trichrome staining based optical microscopic analysis; assay type: functional, organism-based; details: time 21.0 day
[9] = target: T1, Xanthine dehydrogenase/oxidase; assay: Mixed type inhibition of bovine XOD assessed as decrease in Vmax with increase in Km at upto 20 uM using varying levels of xanthine as substrate by Lineweaver-Burk plot analysis; details: cattle
Mus musculus [10] = assay: Renal protective activity against po dosed adenine and potassium oxonate-induced hyperuricemia Kunming mouse model assessed as reduction in TGF-beta1 expression in kidney administered via gavage for 2 weeks by immunohistochemical staining based optical microscopic analysis; assay type: functional, organism-based; details: dose 5-20 mg/kg, DDE = dose-dependent effect
[11] = Stability in simulated intestinal fluid assessed as parent compound remaining incubated for 4 hrs by HPLC analysis; assay type: ADME; details: read-out: Stability
Mus musculus [12] = assay: Anti-hyperuricemic activity against adenine and potassium oxonate-induced hyperuricemia Kunming mouse model assessed as reduction in serum uric acid level at 20 mg/kg, po administered via gavage once daily for 4 weeks (reference value: 356.15 +/- 3.31 uM); assay type: functional
Mus musculus [13] = assay: Anti-hyperuricemic activity against adenine and potassium oxonate-induced hyperuricemia Kunming mouse model assessed as reduction in creatinine level at 5 mg/kg, po administered via gavage once daily for 4 weeks (reference value: 76.87 +/- 0.67 uM); assay type: functional
Mus musculus [14] = assay: Anti-hyperuricemic activity against adenine and potassium oxonate-induced hyperuricemia Kunming mouse model assessed as reduction in creatinine level at 10 mg/kg, po administered via gavage once daily for 4 weeks (reference value: 76.87 +/- 0.67 uM); assay type: functional
Mus musculus [15] = assay: Anti-hyperuricemic activity against adenine and potassium oxonate-induced hyperuricemia Kunming mouse model assessed as reduction in creatinine level at 20 mg/kg, po administered via gavage once daily for 4 weeks (reference value: 76.87 +/- 0.67 uM); assay type: functional
Mus musculus [16] = assay: Anti-hyperuricemic activity against adenine and potassium oxonate-induced hyperuricemia Kunming mouse model assessed as blood urea nitrogen level at 5 mg/kg, po administered via gavage once daily for 4 weeks (reference value: 15.25 +/- 1.21 mM); assay type: functional
Mus musculus [17] = assay: Anti-hyperuricemic activity against adenine and potassium oxonate-induced hyperuricemia Kunming mouse model assessed as blood urea nitrogen level at 10 mg/kg, po administered via gavage once daily for 4 weeks (reference value: 15.25 +/- 1.21 mM); assay type: functional
Mus musculus [18] = assay: Anti-hyperuricemic activity against adenine and potassium oxonate-induced hyperuricemia Kunming mouse model assessed as blood urea nitrogen level at 20 mg/kg, po administered via gavage once daily for 4 weeks (reference value: 15.25 +/- 1.21 mM); assay type: functional
Mus musculus [19] = assay: In vivo inhibition of XOD in po dosed adenine and potassium oxonate-induced hyperuricemia Kunming mouse model assessed as reduction in XOD activity in liver administered via gavage once daily for 2 weeks; assay type: functional, organism-based; details: dose 5-20 mg/kg, DDE = dose-dependent effect
HK-2 [20] = assay: Antiinflammatory activity in hyperuricemic human HK-2 cells assessed as reduction in TGF-beta level at 12.5 to 100 uM; assay type: functional, cell-based; details: dose 12.5-100 µM
HK-2 [21] = assay: Antiinflammatory activity in hyperuricemic human HK-2 cells assessed as reduction in TNF-alpha level at 12.5 to 100 uM; assay type: functional, cell-based; details: dose 12.5-100 µM
HK-2 [22] = assay: Cytoprotective activity in human HK-2 cells assessed as reduction in uric acid-induced cell remodeling by inverted light microscopic analysis; assay type: functional, cell-based; details: dose 12.5-100 µM
HK-2 [23] = assay: Cytoprotective activity in human HK-2 cells assessed as reduction in uric acid-induced increase in branches and intracellular space by inverted light microscopic analysis; assay type: functional, cell-based; details: dose 12.5-100 µM
Mus musculus [24] = assay: Renal protective activity against adenine and potassium oxonate-induced hyperuricemia Kunming mouse model assessed as reduction in TNF-alpha expression in kidney at 5 to 20 mg/kg, po administered via gavage for 2 weeks by ELISA; assay type: functional, organism-based; details: dose 5-20 mg/kg
Mus musculus [25] = assay: Renal protective activity against adenine and potassium oxonate-induced hyperuricemia Kunming mouse model assessed as reduction in IL-1beta expression in kidney at 5 to 20 mg/kg, po administered via gavage for 2 weeks by ELISA relative to control; assay type: functional; design: scale not given: the % may be the effect or the level left; details: dose 5-20 mg/kg
Mus musculus [26] = assay: Renal protective activity against adenine and potassium oxonate-induced hyperuricemia Kunming mouse model assessed as reduction in hyperuricemia-induced renal fibrosis by measuring tubular dilation with epithelial atrophy at 5 to 20 mg/kg, po administered via gavage for 2 weeks by Masson trichrome staining based optical microscopic analysis; assay type: functional, organism-based; details: dose 5-20 mg/kg
Mus musculus [27] = assay: Renal protective activity against adenine and potassium oxonate-induced hyperuricemia Kunming mouse model assessed as reduction in extracellular matrix protein deposition by measuring interstitial expansion with collagen accumulation at 5 to 20 mg/kg, po administered via gavage for 2 weeks by Masson trichrome staining based optical microscopic analysis; assay type: functional, organism-based; details: dose 5-20 mg/kg
Mus musculus [28] = assay: Renal protective activity against adenine and potassium oxonate-induced hyperuricemia Kunming mouse model assessed as reduction in hyperuricemia-induced renal fibrosis by measuring reduction in alpha-SMA expression in kidney at 5 to 20 mg/kg, po administered via gavage for 2 weeks by immunoblot analysis; assay type: functional, organism-based; details: dose 5-20 mg/kg
Mus musculus [29] = assay: Renal protective activity against adenine and potassium oxonate-induced hyperuricemia Kunming mouse model assessed as reduction in renal inflammation by measuring reduction in TLR4 expression at 5 to 20 mg/kg, po administered via gavage for 2 weeks by Western blot analysis; assay type: functional, organism-based; details: dose 5-20 mg/kg
Mus musculus [30] = assay: Renal protective activity against adenine and potassium oxonate-induced hyperuricemia Kunming mouse model assessed as reduction in renal inflammation by measuring reduction in NF-kappaB expression at 5 to 20 mg/kg, po administered via gavage for 2 weeks by Western blot analysis; assay type: functional, organism-based; details: dose 5-20 mg/kg
Mus musculus [31] = assay: Renal protective activity against adenine and potassium oxonate-induced hyperuricemia Kunming mouse model assessed as reduction in renal inflammation by measuring reduction in TNF-alpha expression at 5 to 20 mg/kg, po administered via gavage for 2 weeks by Western blot analysis; assay type: functional, organism-based; details: dose 5-20 mg/kg

T1 sequence (P80457 whole entry): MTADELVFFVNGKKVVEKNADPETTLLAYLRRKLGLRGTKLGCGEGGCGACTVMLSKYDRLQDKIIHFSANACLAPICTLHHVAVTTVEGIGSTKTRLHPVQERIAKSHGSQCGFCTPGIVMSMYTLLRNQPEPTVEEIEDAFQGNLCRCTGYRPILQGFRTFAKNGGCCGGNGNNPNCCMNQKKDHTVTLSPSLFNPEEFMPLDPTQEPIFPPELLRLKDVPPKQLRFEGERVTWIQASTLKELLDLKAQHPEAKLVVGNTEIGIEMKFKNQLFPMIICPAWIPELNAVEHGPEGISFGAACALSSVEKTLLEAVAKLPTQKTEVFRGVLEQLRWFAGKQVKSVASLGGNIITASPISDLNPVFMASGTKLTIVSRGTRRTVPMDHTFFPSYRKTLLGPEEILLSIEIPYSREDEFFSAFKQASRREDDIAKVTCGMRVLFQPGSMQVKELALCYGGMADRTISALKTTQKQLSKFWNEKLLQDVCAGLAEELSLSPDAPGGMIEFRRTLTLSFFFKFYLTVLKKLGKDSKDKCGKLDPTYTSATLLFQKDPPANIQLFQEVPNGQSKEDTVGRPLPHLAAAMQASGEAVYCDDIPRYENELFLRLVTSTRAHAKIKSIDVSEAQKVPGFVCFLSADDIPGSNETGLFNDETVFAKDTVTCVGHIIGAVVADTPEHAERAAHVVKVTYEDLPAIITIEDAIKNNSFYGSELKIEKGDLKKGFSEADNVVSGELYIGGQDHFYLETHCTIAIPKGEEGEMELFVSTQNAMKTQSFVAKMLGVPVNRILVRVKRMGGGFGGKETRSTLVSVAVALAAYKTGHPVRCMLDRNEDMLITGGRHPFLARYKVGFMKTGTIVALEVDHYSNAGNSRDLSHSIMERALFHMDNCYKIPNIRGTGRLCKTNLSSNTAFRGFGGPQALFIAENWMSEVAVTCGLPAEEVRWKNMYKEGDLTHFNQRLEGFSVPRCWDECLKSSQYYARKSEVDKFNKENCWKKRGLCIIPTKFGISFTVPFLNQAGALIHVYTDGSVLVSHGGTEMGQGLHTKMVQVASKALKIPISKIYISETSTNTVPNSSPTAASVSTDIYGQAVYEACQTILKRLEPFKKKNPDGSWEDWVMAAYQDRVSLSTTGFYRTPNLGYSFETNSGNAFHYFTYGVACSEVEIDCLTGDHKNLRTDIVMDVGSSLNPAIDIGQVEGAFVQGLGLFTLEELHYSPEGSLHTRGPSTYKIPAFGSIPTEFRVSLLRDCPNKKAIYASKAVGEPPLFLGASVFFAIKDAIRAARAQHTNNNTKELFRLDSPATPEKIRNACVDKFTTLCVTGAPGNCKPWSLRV

Q: What does the source list for `CC(=O)OCC1=CC[C@@H]2C(C(=O)Nc3ncco3)=CO[C@@H](O[C@@H]3O[C@H](COC(C)=O)[C@@H](OC(C)=O)[C@H](OC(C)=O)[C@H]3OC(C)=O)[C@H]12`?
A: inhibition (HK-2 [1]): Dde; Activity (Mus musculus [2]): 198.27 µM; IC50 [3]: 1370 nM; Activity (Mus musculus [4]): 235.87 µM; Activity (Mus musculus [5]): 29.08 µM; Activity (Mus musculus [6]): 5.62 mM; Activity (Mus musculus [7]): Active; Activity (Mus musculus [8]): Active; inhibition (INH) [9]: Active; Activity (Mus musculus [10]): Dde; remaining at 4 h [11]: 53.3%; Activity (Mus musculus [12]): 182.66 µM; Activity (Mus musculus [13]): 54.79 µM; Activity (Mus musculus [14]): 47.17 µM; Activity (Mus musculus [15]): 38.81 µM; Activity (Mus musculus [16]): 10.05 mM; Activity (Mus musculus [17]): 8.82 mM; Activity (Mus musculus [18]): 8.02 mM; inhibition (Mus musculus [19]): Dde; Activity (HK-2 [20]): Active; Activity (HK-2 [21]): Active; Activity (HK-2 [22]): Active; Activity (HK-2 [23]): Active; Activity (Mus musculus [24]): Active; Activity (Mus musculus [25]): >50%; Activity (Mus musculus [26]): Active; Activity (Mus musculus [27]): Active; Activity (Mus musculus [28]): Active; Activity (Mus musculus [29]): Active; Activity (Mus musculus [30]): Active; Activity (Mus musculus [31]): Active
